We go through one substance from paper doi:10.1101/2020.07.12.199869v2 (bioRxiv, 2020).

This experiment relates to PGP/syndapin-2. Kind of experiment: Proximity ligation assay PGP/syndapin-2 in BECs. The experiment is classed as cell-based, mouse. Particulars: polarised BECs, FAM-Aβ (1-40) 500 nM, 15 minutes; n = 60 images.

In the case of “5-Fluorescein-amyloid-β protein (Aβ 1-40) [FAM-Aβ (1-40)]”, the “change in interaction of syndapin-2 with PGP (PLA dots)” value is recorded as “no significant difference”.
